# Activity calls are given as the source filed them.
# Target: Cytochrome P450 3A4 (Homo sapiens, UniProt P08684);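 further: CYP3A4 tested as one member of a cytochrome P450 panel screen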
# Details: not given
# Sequence of Cytochrome P450 3A4 (P08684 whole entry): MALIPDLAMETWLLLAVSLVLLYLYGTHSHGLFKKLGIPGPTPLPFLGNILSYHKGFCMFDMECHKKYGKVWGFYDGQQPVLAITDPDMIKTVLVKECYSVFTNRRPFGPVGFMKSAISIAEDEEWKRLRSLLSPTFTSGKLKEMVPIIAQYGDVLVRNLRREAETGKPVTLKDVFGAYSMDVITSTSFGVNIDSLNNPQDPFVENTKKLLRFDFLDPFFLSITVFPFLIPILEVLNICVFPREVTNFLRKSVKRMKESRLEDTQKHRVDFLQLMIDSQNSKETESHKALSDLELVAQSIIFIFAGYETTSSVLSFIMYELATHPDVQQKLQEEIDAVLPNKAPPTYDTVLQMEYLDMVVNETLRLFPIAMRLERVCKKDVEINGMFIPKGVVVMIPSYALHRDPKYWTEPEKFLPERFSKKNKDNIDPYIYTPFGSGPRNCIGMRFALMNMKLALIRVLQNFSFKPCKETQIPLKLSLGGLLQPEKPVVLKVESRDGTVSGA
row,Compound,AC50
1,COCCn1c(=O)c(C)nc2cnc(OC)nc21,31.6 µM (inconclusive)
2,COc1cc(-c2ccc(/N=N\c3ccc4c(S(=O)(=O)O)cc(S(=O)(=O)O)c(N)c4c3O)c(OC)c2)ccc1/N=N\c1ccc2c(S(=O)(=O)O)cc(S(=O)(=O)O)c(N)c2c1O,10 µM (inconclusive)
3,O=c1c(-c2ccc(F)cc2)nc2cnc(Oc3cccc(Cl)c3)nc2n1C[C@H]1CCCO1,12.6 µM (inconclusive)
4,Cc1cc(NC(=O)c2c([N+](=O)[O-])cnn2C)no1,25.1 µM (inconclusive)
5,CN(C(=S)NC(=O)c1ccccc1Br)C1CCCCC1,2.51 µM (inconclusive)
6,CCOc1ccc(-c2nn(-c3ccccc3)cc2/C=C(\C#N)S(=O)(=O)c2ccccc2)cc1C,11.2 µM (inconclusive)
7,O=c1nc(SCc2cccc([N+](=O)[O-])c2)[nH]c2nc[nH]c12,3.16 µM (inconclusive)
8,CC(C)(O)C#Cc1ccc(C(=O)NCc2cccs2)s1,28.2 µM (inconclusive)
9,O=C(Nc1cccc(C(F)(F)F)c1)c1n[nH]c(Cn2cncn2)n1,25.1 µM (inconclusive)
10,Clc1cncc(N2CCNCC2)n1 [MK-212],15.8 µM (inconclusive)
11,"COc1cc(OC)c(C(=O)CCCCN2CCC3(CC2)NC(=O)NC3=O)cc1NS(=O)(=O)c1ccc(C(F)(F)F)cc1 [RS-102,221]",7.94 µM (inconclusive)

# System: Streptococcus
# Assay: Group A Streptococcus viability loss, dose response, counter-screen for streptokinase expression inhibitor project, luminescence, BacTiterGlo (AID 1915);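 further: potency for reduction of bacterial viability or growth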
# Assay type: functional, organism-based
# Details: not given
row,Compound,EC50
1,Cc1cccc(CSc2ncnc3c2cnn3Cc2ccccc2)c1,> 150 µM (not active)
2,O=C(c1ccccc1Cl)N1CCN(S(=O)(=O)c2cccs2)CC1,> 150 µM (not active)
3,O=C(CCCN1C(=O)/C(=C\c2cccs2)SC1=S)Nc1cc([N+](=O)[O-])ccc1O,> 150 µM (not active)
4,CN(C(=S)NC(=O)c1ccccc1)C1CCCCC1,> 150 µM (not active)
5,O=C(NCC1CCCO1)c1cc2c3ccccc3nc-2c(-c2cccc(Cl)c2)[nH]1 (stereo not drawn),25.3 µM (active)
6,O=S(=O)(Nc1cccc2c1CCCC2)c1ccc(Cl)cc1,> 150 µM (not active)
7,O=C1NC(=O)N(CCc2ccccc2)C(=O)/C1=C(O)/C=C/c1c[nH]c2ccccc12,5.6 µM (active)
8,COc1ccc(Oc2nc(C(F)(F)F)nc3ccccc23)cc1,> 150 µM (not active)
9,Cc1cnn(-c2nc(-c3ccccc3)cc(-c3ccccc3)n2)c1,> 150 µM (not active)
10,O=C(Nc1cccc(-c2csc(Nc3ccc(Cl)cc3)n2)c1)c1ccccc1,5.66 µM (active)
11,O=C(Nc1nc(-c2ccccn2)cs1)C1CC1,> 150 µM (not active)
12,Sc1nnc(-c2cccs2)n1/N=C/c1cn(-c2ccccc2)nc1-c1ccccc1,71.7 µM (active)
13,NC(=S)N/N=C\c1c(OCc2ccccc2Cl)ccc2ccccc12,> 150 µM (not active)

# Target: Cytochrome P450 2C19 (Homo sapiens, UniProt P33261)
# Assay: Cytochrome panel assay with activity outcomes. Panel member name: p450-cyp2c19 Compounds with AC50 equal or less than 10 uM are considered active
# Assay type: functional
# Details: not given
# Sequence of Cytochrome P450 2C19 (P33261 whole entry): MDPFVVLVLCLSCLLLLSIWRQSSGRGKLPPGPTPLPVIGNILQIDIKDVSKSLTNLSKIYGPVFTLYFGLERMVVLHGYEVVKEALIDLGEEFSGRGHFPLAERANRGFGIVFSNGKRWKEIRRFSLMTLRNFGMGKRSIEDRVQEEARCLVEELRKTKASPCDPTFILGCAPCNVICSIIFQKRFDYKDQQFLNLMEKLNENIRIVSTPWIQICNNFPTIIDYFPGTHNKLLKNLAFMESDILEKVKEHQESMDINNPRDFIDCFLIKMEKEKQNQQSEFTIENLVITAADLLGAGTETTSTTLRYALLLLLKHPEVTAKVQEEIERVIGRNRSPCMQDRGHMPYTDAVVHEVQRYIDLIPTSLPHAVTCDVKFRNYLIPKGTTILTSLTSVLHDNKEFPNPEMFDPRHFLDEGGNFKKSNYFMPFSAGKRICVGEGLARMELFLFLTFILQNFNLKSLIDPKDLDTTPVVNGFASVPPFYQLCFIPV
row,Compound,AC50
1,O=c1nc(SCc2cccc([N+](=O)[O-])c2)[nH]c2nc[nH]c12,inconclusive

# Same assay, conditions: read-out: AC50
row,Compound,AC50
1,COc1ccc(Oc2ncc3nc(C)c(=O)n(C[C@H]4CCCO4)c3n2)cc1,25.1 µM (inconclusive)
2,O=c1c(-c2ccc(F)cc2)nc2cnc(Oc3cccc(Cl)c3)nc2n1C[C@H]1CCCO1,39.8 µM (inconclusive)
3,CCN1CCN(S(=O)(=O)c2ccc(Cl)c(C(=O)Nc3nnc(CC(C)C)s3)c2)CC1,39.8 µM (inconclusive)
4,Cc1ccc(Cn2cccc(NC(=O)NCc3ccccc3)c2=O)cc1,5.01 µM (inconclusive)
5,O=C(CCC(=O)Nc1ccccc1)NNC(=O)c1cccs1,39.8 µM (inconclusive)
6,CC(C)(O)C#Cc1ccc(C(=O)NCc2cccs2)s1,17.8 µM (inconclusive)
7,O=C(Nc1cccc(C(F)(F)F)c1)c1n[nH]c(Cn2cncn2)n1,28.2 µM (inconclusive)
8,CC1=C(C#N)C(NC(=O)C2CCCCC2)(C(F)(F)F)C(=O)N1 (stereo not drawn),28.2 µM (inconclusive)
9,COc1ccc(CCNC=C2C(=O)CC(C)(C)CC2=O)cc1,28.2 µM (inconclusive)
10,Clc1cncc(N2CCNCC2)n1 [MK-212],6.31 µM (inconclusive)

# Target: T1, Streptokinase A (Streptococcus pyogenes serotype M1, UniProt P10520)
# T1 sequence (P10520 whole entry): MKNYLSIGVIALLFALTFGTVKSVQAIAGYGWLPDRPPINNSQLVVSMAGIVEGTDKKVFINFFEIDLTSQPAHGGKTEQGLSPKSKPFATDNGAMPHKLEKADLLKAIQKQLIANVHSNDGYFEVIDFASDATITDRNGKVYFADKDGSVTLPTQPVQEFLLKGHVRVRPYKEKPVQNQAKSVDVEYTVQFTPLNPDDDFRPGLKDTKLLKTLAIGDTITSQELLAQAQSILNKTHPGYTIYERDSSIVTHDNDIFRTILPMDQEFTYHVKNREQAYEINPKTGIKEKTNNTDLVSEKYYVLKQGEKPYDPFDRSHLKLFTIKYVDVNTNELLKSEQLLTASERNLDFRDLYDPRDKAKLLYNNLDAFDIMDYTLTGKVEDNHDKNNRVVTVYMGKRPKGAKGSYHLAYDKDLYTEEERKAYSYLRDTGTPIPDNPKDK
# Assay: S. pyogenes streptokinase expression inhibitors, potency, dose response, plasminogen activation absorbance, OD405 (AID 1914);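 further: secreted streptokinase activity via plasminogen activation per viability signal from cell pellet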
# Assay type: functional, Streptococcus pyogenes M1 GAS
# Details: not given
row,Compound,EC50
1,Cc1cccc(CSc2ncnc3c2cnn3Cc2ccccc2)c1,> 150 µM (not active)
2,O=C(c1ccccc1Cl)N1CCN(S(=O)(=O)c2cccs2)CC1,> 150 µM (not active)
3,O=C(CCCN1C(=O)/C(=C\c2cccs2)SC1=S)Nc1cc([N+](=O)[O-])ccc1O,25.3 µM (active)
4,CN(C(=S)NC(=O)c1ccccc1)C1CCCCC1,> 150 µM (not active)
5,O=C(NCC1CCCO1)c1cc2c3ccccc3nc-2c(-c2cccc(Cl)c2)[nH]1 (stereo not drawn),> 150 µM (not active)
6,O=S(=O)(Nc1cccc2c1CCCC2)c1ccc(Cl)cc1,97.8 µM (inconclusive)
7,O=C1NC(=O)N(CCc2ccccc2)C(=O)/C1=C(O)/C=C/c1c[nH]c2ccccc12,> 150 µM (not active)
8,COc1ccc(Oc2nc(C(F)(F)F)nc3ccccc23)cc1,46.8 µM (active)
9,Cc1cnn(-c2nc(-c3ccccc3)cc(-c3ccccc3)n2)c1,27.2 µM (active)
10,O=C(Nc1cccc(-c2csc(Nc3ccc(Cl)cc3)n2)c1)c1ccccc1,> 150 µM (not active)
11,O=C(Nc1nc(-c2ccccn2)cs1)C1CC1,> 150 µM (not active)
12,Sc1nnc(-c2cccs2)n1/N=C/c1cn(-c2ccccc2)nc1-c1ccccc1,> 150 µM (not active)
13,NC(=S)N/N=C\c1c(OCc2ccccc2Cl)ccc2ccccc12,> 150 µM (not active)

# Target: Cytochrome P450 2C9 (Homo sapiens, UniProt P11712)
# Details: not given
# Sequence of Cytochrome P450 2C9 (P11712 whole entry): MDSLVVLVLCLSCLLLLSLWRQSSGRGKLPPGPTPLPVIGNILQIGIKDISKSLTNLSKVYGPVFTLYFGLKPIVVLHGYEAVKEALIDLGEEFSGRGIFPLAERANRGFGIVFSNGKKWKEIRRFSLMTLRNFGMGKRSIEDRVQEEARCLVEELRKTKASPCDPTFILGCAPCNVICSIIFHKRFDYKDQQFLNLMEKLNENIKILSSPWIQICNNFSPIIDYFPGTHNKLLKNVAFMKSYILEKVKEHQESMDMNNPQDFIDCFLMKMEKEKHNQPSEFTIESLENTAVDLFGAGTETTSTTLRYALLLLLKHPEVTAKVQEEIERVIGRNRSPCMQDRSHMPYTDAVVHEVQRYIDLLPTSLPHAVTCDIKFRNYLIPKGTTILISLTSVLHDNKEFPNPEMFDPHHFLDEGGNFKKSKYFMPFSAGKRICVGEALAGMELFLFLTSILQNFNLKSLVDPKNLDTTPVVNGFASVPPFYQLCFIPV
row,Compound,AC50
1,COc1ccc(Oc2ncc3nc(C)c(=O)n(C[C@H]4CCCO4)c3n2)cc1,39.8 µM (inconclusive)
2,COc1cc(-c2ccc(/N=N\c3ccc4c(S(=O)(=O)O)cc(S(=O)(=O)O)c(N)c4c3O)c(OC)c2)ccc1/N=N\c1ccc2c(S(=O)(=O)O)cc(S(=O)(=O)O)c(N)c2c1O,10 µM (inconclusive)
3,Cc1cc(NC(=O)c2c([N+](=O)[O-])cnn2C)no1,39.8 µM (inconclusive)
4,O=C(c1ccco1)N1CCC[C@@]2(CCN(C(c3ccccc3)c3ccccc3)C2)C1,31.6 µM (inconclusive)
5,CCN1CCN(S(=O)(=O)c2ccc(Cl)c(C(=O)Nc3nnc(CC(C)C)s3)c2)CC1,25.1 µM (inconclusive)
6,Cc1ccc(Cn2cccc(NC(=O)NCc3ccccc3)c2=O)cc1,14.1 µM (inconclusive)
7,CCOc1ccc(-c2nn(-c3ccccc3)cc2/C=C(\C#N)S(=O)(=O)c2ccccc2)cc1C,10 µM (inconclusive)
8,O=C(CCC(=O)Nc1ccccc1)NNC(=O)c1cccs1,31.6 µM (inconclusive)
9,CC1=C(C#N)C(NC(=O)C2CCCCC2)(C(F)(F)F)C(=O)N1 (stereo not drawn),7.94 µM (inconclusive)
10,COc1ccc(CCNC=C2C(=O)CC(C)(C)CC2=O)cc1,12.6 µM (inconclusive)
11,CN1C(C(=O)Nc2ccccn2)=C(O)c2sccc2S1(=O)=O [TENOXICAM],2.51 µM (inconclusive)

# System: Streptococcus sp. 'group A'
# Assay: growth inhibition of control SK(-) GAS strain, dose response, counter-screen for streptokinase expression inhibitor project, luminescence, kanamycin, BacTiterGlo, confirmation (AID 1900)
# Assay type: functional, organism-based
# Details: not given
row,Compound,EC50
1,Cc1cccc(CSc2ncnc3c2cnn3Cc2ccccc2)c1,23 µM (active)
2,O=C(c1ccccc1Cl)N1CCN(S(=O)(=O)c2cccs2)CC1,> 150 µM (not active)
3,O=C(CCCN1C(=O)/C(=C\c2cccs2)SC1=S)Nc1cc([N+](=O)[O-])ccc1O,4.29 µM (active)
4,CN(C(=S)NC(=O)c1ccccc1)C1CCCCC1,> 150 µM (not active)
5,O=C(NCC1CCCO1)c1cc2c3ccccc3nc-2c(-c2cccc(Cl)c2)[nH]1 (stereo not drawn),4.12 µM (active)
6,O=S(=O)(Nc1cccc2c1CCCC2)c1ccc(Cl)cc1,4.86 µM (active)
7,O=C1NC(=O)N(CCc2ccccc2)C(=O)/C1=C(O)/C=C/c1c[nH]c2ccccc12,5.47 µM (active)
8,COc1ccc(Oc2nc(C(F)(F)F)nc3ccccc23)cc1,29.1 µM (active)
9,Cc1cnn(-c2nc(-c3ccccc3)cc(-c3ccccc3)n2)c1,9.49 µM (active)
10,O=C(Nc1cccc(-c2csc(Nc3ccc(Cl)cc3)n2)c1)c1ccccc1,4.01 µM (active)
11,O=C(Nc1nc(-c2ccccn2)cs1)C1CC1,> 150 µM (not active)
12,Sc1nnc(-c2cccs2)n1/N=C/c1cn(-c2ccccc2)nc1-c1ccccc1,6.85 µM (active)
13,NC(=S)N/N=C\c1c(OCc2ccccc2Cl)ccc2ccccc12,2.39 µM (active)

# System: not listed separately
# Assay: HEp-2 cell cytotoxicity, dose response, cytotoxicity control for RSV inhibitor project, HTS (AID 2410)
# Assay type: functional
# Details: human respiratory syncytial virus
row,Compound,CC50
1,CC(=O)c1coc2c1cc(O)c1ccccc12,> 50 µM (active)
2,CCc1nc2ccccc2nc1O,28.8 µM (active)
3,CCN1C(=O)N[C@@H](CCc2ccccc2)C(C(=O)OC)=C1C,29.9 µM (active)
4,O=C(Cn1ccc(C(F)(F)F)n1)N=Nc1c(O)[nH]c2ccc(Br)cc12,> 50 µM (active)
5,CC1N(C)c2cc(NC(=O)c3ccco3)c(P(=O)(Nc3ccc([N+](=O)[O-])cc3)N3CCOCC3)cc2C1(C)C (stereo not drawn),18 µM (active)
6,C=CCCN(C1CCCC1)S(=O)(=O)c1ccccc1Br,> 50 µM (active)
7,CCC1CCCCN1c1nc2c(C=O)c(C)nn2c2ccccc12 (stereo not drawn),20.5 µM (active)
8,CCOC(=O)c1c(C)[nH]c(C(=O)COC(=O)c2cc(C)oc2C)c1C,> 50 µM (active)
9,Cc1ccc2nc(O)c(COC(=O)C3CCCCC3)cc2c1,> 50 µM (active)
10,COc1ccc(C2(C)NC(=O)N(CC(=O)Nc3ccc(-c4nc5ccc(C)cc5s4)cc3)C2=O)cc1 (stereo not drawn),29.8 µM (active)
11,Cc1cc(N2CCOCC2)nc2ccc(NC(=O)CCC(=O)N3CCN(c4ccc(F)cc4)CC3)cc12,> 12.5 µM (active)
12,C=CCn1c(SCc2cc(=O)n3ccsc3n2)nc2scc(C3CC3)c2c1=O,33.1 µM (active)
13,CCCCCSc1nc2c(c(=O)[nH]c(=O)n2C)n1C,> 50 µM (active)
14,O=C(Nc1cccc(-c2csc(Nc3ccc(Cl)cc3)n2)c1)c1ccccc1,10.3 µM (active)
15,CCC(C(=O)NC(C)CCc1ccccc1)n1nc(C)n2c(cc3occc32)c1=O (stereo not drawn),39.2 µM (active)
16,FC(F)(F)c1ccccc1/C=N/n1c(S)nnc1COc1ccccc1,32.1 µM (active)

# Source: ChEMBL document CHEMBL1201862, “PubChem BioAssay data set” (2004)
